Where two headings read alike, the source gives them in different places.
Key:
KB cells = test: Inhibition of growth of KB cells (constitutively overexpress α-FR); type: cell-based, human; settings: for KB: fold increased IC50 in presence of folic acid: 1 μM FA
Excerpt: (§1) CB300945, the (RS)-C2-CH2OH analogue of the known cyclopenta[g]-quinazoline, CB300638 was synthesised as in Example 1. In addition, the C2-NH2 was made as a comparative example. […] The human A431-FBP cell line was transfected with the α-FR and sensitivity compared with the A431 cell line. Human nasopharengeal KB cells constitutively overexpress this receptor (see Bagnoli et al. Oncogene, 19, 4754-4763, 2000).

α-FR of L1210-FBP cells = target: T1, α-FR of L1210-FBP cells (Mus musculus, UniProt P35846); test: Binding to the α-FR relative to folic acid, L1210-FBP cells; settings: >1 = binding greater than folic acid
T1 construct: endogenous in cells; host or cells: mouse L1210-FBP leukaemia cells

A431 cells = test: Inhibition of growth of A431 (neo-transfected, not expressing α-FR) cells; type: cell-based, human; settings: for A431: fold increased IC50 in presence of folic acid: 1 μM FA
Excerpt: as §1

A431-FBP cells = test: Inhibition of growth of A431-FBP cells (A431 transfected with the α-FR); type: cell-based, human; settings: for A431-FBP: fold increased IC50 in presence of folic acid: 1 μM FA; for activity in A431-FBP cells (in words): α-FR mediated uptake
Excerpt: as §1

[1] = Homo sapiens, KB, read-out: Inhibition of cell growth, IC50, KB + 1 μM FA, 1 nM LV, + 1 μM folic acid
[2] = Homo sapiens, KB, read-out: Inhibition of cell growth, IC50, KB + 1 μM FA, 20 nM LV, + 1 μM folic acid
[3] = Homo sapiens, A-431, 1 nM LV, read-out: Inhibition of cell growth, IC50, A431
[4] = Homo sapiens, A-431, read-out: Inhibition of cell growth, IC50, A431 + 1 μM FA, 1 nM LV, + 1 μM folic acid
[5] = Homo sapiens, A-431, read-out: Inhibition of cell growth, IC50, A431 + 1 μM FA, 20 nM LV, + 1 μM folic acid
[6] = Homo sapiens, A-431, 1 nM LV, read-out: Inhibition of cell growth, IC50, A431-FBP
[7] = Homo sapiens, A-431, read-out: Inhibition of cell growth, IC50, A431-FBP + 1 μM FA, 1 nM LV, + 1 μM folic acid
[8] = Homo sapiens, A-431, read-out: Inhibition of cell growth, IC50, A431-FBP + 1 μM FA, 20 nM LV, + 1 μM folic acid
[9] = Homo sapiens, KB, 1 nM LV, read-out: Inhibition of cell growth, IC50, KB
[10] = 20 nM LV, read-out: Inhibition of cell growth, IC50, A431

T1 sequence (P35846 25-232): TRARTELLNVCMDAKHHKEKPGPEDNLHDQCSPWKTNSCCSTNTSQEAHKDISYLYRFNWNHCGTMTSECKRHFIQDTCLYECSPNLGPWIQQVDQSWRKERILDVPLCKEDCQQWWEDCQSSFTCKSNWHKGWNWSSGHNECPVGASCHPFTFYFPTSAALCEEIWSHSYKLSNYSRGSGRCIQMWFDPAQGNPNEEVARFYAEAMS

IC50 (KB cells; [1]) | IC50 (KB cells; [2]) | relative binding affinity (inverse relative affinity) for the α-FR (α-FR of L1210-FBP cells) | A431: fold increased IC50 in presence of folic acid (A431 cells; 20 nM LV) | IC50 (A431 cells; [3]) | IC50 (A431 cells; [4]) | A431-FBP: fold increased IC50 in presence of folic acid (A431-FBP cells; 20 nM LV) | IC50 (A431-FBP cells; [6]) | IC50 (A431-FBP cells; [7]) | IC50 (A431-FBP cells; [8]) | IC50 (KB cells; [9]) | A431: fold increased IC50 in presence of folic acid (A431 cells; 1 nM LV) | Compound | KB: fold increased IC50 in presence of folic acid (KB cells; 1 nM LV) | KB: fold increased IC50 in presence of folic acid (KB cells; 20 nM LV) | IC50 (A431 cells; [5]) | A431-FBP: fold increased sensitivity compared with A431 (A431-FBP cells; 1 nM LV) | A431-FBP: fold increased IC50 in presence of folic acid (A431-FBP cells; 1 nM LV) | A431-FBP: fold increased sensitivity compared with A431 (A431-FBP cells; 20 nM LV) | activity in A431-FBP cells (in words) (A431-FBP cells) | IC50 (A431 cells; [10]) | other results
– | – | – | (1) fold | – | – | (180) fold | – | – | 5.1 µM | – | – | C#CCN(c1ccc(C(=O)N[C@@H](CCC(=O)N(C)[C@@H](CCC(=O)O)C(=O)O)C(=O)O)cc1)C1CCc2cc3nc(CO)[nH]c(=O)c3cc21 (mixture of isomers) [CB300960 (R, S), N—{N-{4-[N-((6RS)-2-hydroxymethyl-4-oxo-3,4,7,8-tetrahydro-6H-cyclopenta[g]quinazolin-6-yl)-N-(prop-2-ynyl)amino]benzoyl}-L-γ-glutamyl}-N-methyl-L-glutamic acid] | – | – | – | – | – | – | – | – | –
0.61 ± 0.012 µM | 0.76 ± 0.17 µM | 0.57 | (1) fold | 1.2 ± 0.21 µM | 0.98 ± 0.23 µM | (130) fold | 0.0072 ± 0.001 µM | 0.61 ± 0.012 µM | 0.87 ± 0.29 µM | 0.0079 ± 0.001 µM | (1) fold | C#CCN(c1ccc(C(=O)N[C@@H](CCC(=O)N[C@H](CCC(=O)O)C(=O)O)C(=O)O)cc1)C1CCc2cc3nc(C)[nH]c(=O)c3cc21 (mixture of isomers) [CB300638 (RS)] | (76) fold | (140) fold | – | (170) fold | (85) fold | (220) fold | highly sensitive | – | –
19 ± 1.5 µM | 19 ± 1.2 µM | 0.57 | (1) fold | 24 ± 3.6 µM | 24 ± 2.9 µM | (1) fold | 9.1 ± 0.83 µM | 12 ± 2.1 µM | 7.1 ± 1 µM | 19 µM | (1) fold | C#CCN(c1ccc(C(=O)N[C@@H](CCC(=O)N[C@H](CCC(=O)O)C(=O)O)C(=O)O)cc1)C1CCc2cc3nc(N)[nH]c(=O)c3cc21 (mixture of isomers) [CB300944 (RS)] | (1) fold | (1) fold | 22 µM | (3) fold | (1) fold | (3) fold | very little activity | 27 µM | IC50 (KB cells; Homo sapiens, KB, 20 nM LV, read-out: Inhibition of cell growth, IC50, KB): 19 ± 0.58 µM; IC50 (A431 cells; Homo sapiens, A-431, 20 nM LV, read-out: Inhibition of cell growth, IC50, A431): 23 µM; IC50 (A431-FBP cells; Homo sapiens, A-431, 20 nM LV, read-out: Inhibition of cell growth, IC50, A431-FBP): 8.3 ± 0.64 µM

Compound | IC50 (KB cells; [1]) | IC50 (KB cells; [2]) | relative binding affinity (inverse relative affinity) for the α-FR (α-FR of L1210-FBP cells) | A431: fold increased IC50 in presence of folic acid (A431 cells; 20 nM LV) | IC50 (A431 cells; [3]) | IC50 (A431 cells; [4]) | A431-FBP: fold increased IC50 in presence of folic acid (A431-FBP cells; 20 nM LV) | IC50 (A431-FBP cells; [6]) | IC50 (A431-FBP cells; [7]) | IC50 (A431-FBP cells; [8]) | IC50 (KB cells; [9]) | A431: fold increased IC50 in presence of folic acid (A431 cells; 1 nM LV) | KB: fold increased IC50 in presence of folic acid (KB cells; 1 nM LV) | KB: fold increased IC50 in presence of folic acid (KB cells; 20 nM LV) | IC50 (A431 cells; [5]) | A431-FBP: fold increased sensitivity compared with A431 (A431-FBP cells; 1 nM LV) | A431-FBP: fold increased IC50 in presence of folic acid (A431-FBP cells; 1 nM LV) | A431-FBP: fold increased sensitivity compared with A431 (A431-FBP cells; 20 nM LV) | activity in A431-FBP cells (in words) (A431-FBP cells) | IC50 (A431 cells; [10]) | other results
C#CCN(c1ccc(C(=O)N[C@@H](CCC(=O)N[C@H](CCC(=O)O)C(=O)O)C(=O)O)cc1)C1CCc2cc3nc(CO)[nH]c(=O)c3cc21 (mixture of isomers) [CB300945 (RS), N—{N-{4-[N-((6RS)-2-Hydroxymethyl-4-oxo-3,4,7,8-tetrahydro-6H-cyclopenta[g]quinazolin-6-yl)-N-(prop-2-ynyl)amino]benzoyl}-L-γ-glutamyl}-D-glutamic acid] | 7.6 ± 1.3 µM | 7.3 ± 2 µM | 0.71 | (1) fold | 7.2 ± 3.6 µM | 7.3 ± 3.3 µM | (3100) fold | 0.0019 ± 0.0006 µM | 5.7 ± 1.3 µM | 6.5 ± 0.86 µM | – | – | (2200) fold | (2100) fold | 9.3 ± 3.5 µM | (3800) fold | (3100) fold | (4700) fold | highly potent | – | –
C#CCN(Cc1cc2c(O)nc(C)nc2cc1C)c1ccc(C(=O)N[C@@H](CCc2nnn[nH]2)C(=O)O)c(F)c1 [ZD9331] | – | – | – | (1) fold | – | – | (2) fold | – | – | – | – | (1) fold | (3) fold | (3) fold | – | (7) fold | (3) fold | (4) fold | – | 0.082 ± 0.042 µM | IC50 (KB cells; 1 nM LV, read-out: Inhibition of cell growth, IC50, KB): 0.0021 ± 0.0013 µM; IC50 (KB cells; 20 nM LV, read-out: Inhibition of cell growth, IC50, KB): 0.0036 ± 0.0021 µM; IC50 (KB cells; read-out: Inhibition of cell growth, IC50, KB + 1 μM FA, 1 nM LV, + 1 μM folic acid): 0.00641 ± 0.0035 µM; IC50 (KB cells; read-out: Inhibition of cell growth, IC50, KB + 1 μM FA, 20 nM LV, + 1 μM folic acid): 0.012 ± 0.005 µM; IC50 (A431 cells; 1 nM LV, read-out: Inhibition of cell growth, IC50, A431): 0.061 ± 0.014 µM; IC50 (A431 cells; read-out: Inhibition of cell growth, IC50, A431 + 1 μM FA, 1 nM LV, + 1 μM folic acid): 0.056 ± 0.025 µM; IC50 (A431 cells; read-out: Inhibition of cell growth, IC50, A431 + 1 μM FA, 20 nM LV, + 1 μM folic acid): 0.067 ± 0.029 µM; IC50 (A431-FBP cells; 1 nM LV, read-out: Inhibition of cell growth, IC50, A431-FBP): 0.0088 ± 0.0052 µM; IC50 (A431-FBP cells; 20 nM LV, read-out: Inhibition of cell growth, IC50, A431-FBP): 0.018 ± 0.0097 µM; IC50 (A431-FBP cells; read-out: Inhibition of cell growth, IC50, A431-FBP + 1 μM FA, 1 nM LV, + 1 μM folic acid): 0.027 ± 0.0076 µM; IC50 (A431-FBP cells; read-out: Inhibition of cell growth, IC50, A431-FBP + 1 μM FA, 20 nM LV, + 1 μM folic acid): 0.034 ± 0.0087 µM

Reference: patent US8552016B2, “Anti-cancer cyclopenta(g)quinazoline compounds” (BTG International Limited, priority 2001, dated 2013)
